Data: patent US4322546A, “15-Deoxy-16-hydroxy-16-allenyl prostane derivatives of the E and F series” (American Cyanamid Company, priority 1980, dated 1982)

Experiments:
Format in all cases: in vivo, Guinea-Pigs
[1] = tested on: bronchospasms elicited by intravenous injections of histamine; experiment: bronchodilator activity, Konzett procedure, against histamine-induced bronchospasm; conditions: Cavia porcellus; three logarithmic cumulative intravenous doses; spasmogen histamine i.v.
Procedure: (§1) The bronchodilator activity for representative compounds of this invention was determined in Guinea-Pigs against bronchospasms elicited by intravenous injections of serotonin, histamine, and acetylcholine, by the Konzett procedure, the details of which are discussed by J. Lulling, P. Lievens, F. El Sayed and J. Prignot, Arzeimittel-Forschung 18, 995 (1968).
(§2) In the table which follows, bronchodilator activity for representative compounds of the invention against spasmogenic agents serotonin, histamine, and acetylcholine is expressed as an ED50 determined from the results obtained with three logarithmic cumulative intravenous doses.

[2] = tested on: bronchospasms elicited by intravenous injections of serotonin; experiment: bronchodilator activity, Konzett procedure, against serotonin-induced bronchospasm; conditions: Cavia porcellus; three logarithmic cumulative intravenous doses; spasmogen serotonin i.v.
Procedure: as §1, §2

[3] = tested on: bronchospasms elicited by intravenous injections of acetylcholine; experiment: bronchodilator activity, Konzett procedure, against acetylcholine-induced bronchospasm; conditions: Cavia porcellus; three logarithmic cumulative intravenous doses; spasmogen acetylcholine i.v.
Procedure: as §1, §2

Row | SMILES | ED50 [1] [µg/kg] | ED50 [2] [µg/kg] | ED50 [3] [µg/kg]
1 | C=C=CC(O)(C/C=C/[C@H]1[C@H](O)CC(=O)[C@@H]1CCCCCCC(=O)O)CCCC (relative stereo) [dl 15-deoxy-16-hydroxy-16-allenyl-PGE1, dl-11α,16-dihydroxy-9-oxo-16-allenyl-13-trans prostenoic acid] | 1 | 1.05 | 1.2
2 | C=C=CC(O)(C/C=C/[C@H]1[C@H](O)CC(=O)[C@@H]1C/C=C\CCCC(=O)O)CCCC (relative stereo) [dl 15-deoxy-16-hydroxy-16-allenyl-PGE2, dl-11α,16-dihydroxy-9-oxo-16-allenyl-5-cis-13-trans prostadienoic acid] | 1 | 1.4 | 1.2
